In patent US20110092490A1, “PYRIMIDINES, TRIAZINES AND THEIR USE AS PHARMACEUTICAL AGENTS” (THE UNIVERSITY OF NOTTINGHAM, priority 2008, published 2011):
Where two headings read alike, the source gives them in different places.

Tests used:
CDK7 = CDK7 (Homo sapiens, UniProt P50613); test: Kinase assay (radioactive phosphate incorporation); type: biochemical; conditions: CDK7-cyclinH; read-out: Kinase inhibition IC50 CDK7-cyclinH
Description: (§1) Kinase assays. The compounds from the examples above were investigated for their ability to inhibit the enzymatic activity of various protein kinases using the method as disclosed in Wang, S. et al. J Med Chem 2004, 47, 1662. This was achieved by measurement of incorporation of radioactive phosphate from ATP into appropriate polypeptide substrates. Recombinant protein kinases and kinase complexes were produced or obtained commercially. Assays were performed using 96-well plates and appropriate assay buffers (typically 25 mM β-glycerophosphate, 20 mM MOPS, 5 mM EGTA, 1 mM DTT, 1 mM […], pH 7.4), into which were added 2-4 μg of active enzyme with appropriate substrates. The reactions were initiated by addition of Mg/ATP mix (15 mM MgCl2+100 μM ATP with 30-50 kBq per well of [γ-^32P]-ATP) and mixtures incubated as required at 30° C.; Reactions were stopped on ice, followed by filtration through p81 filterplates or GF/C filterplates (Whatman Polyfiltronics, Kent, UK). After washing 3 times with 75 mM aq orthophosphoric acid, plates were dried, scintillant added and incorporated radioactivity measured in a scintillation counter (TopCount, Packard Instruments, Pangbourne, Berks, UK). Compounds for kinase assay were made up as 10 mM stocks in DMSO and diluted into 10% DMSO in assay buffer.

CDK2 = CDK2 (Homo sapiens, UniProt P24941); test: Kinase assay (radioactive phosphate incorporation); type: biochemical; conditions: CDK2-cyclinE; read-out: Kinase inhibition IC50 CDK2-cyclinE
Description: as §1, with “The compounds from the examples above were investigated for their ability to inhibit the enzymatic activity of various protein kinases using the method as disclosed in Wang, S. et al. J Med Chem 2004, 47, 1662.” left out

CDK9 = CDK9 (Homo sapiens, UniProt P50750); test: Kinase assay (radioactive phosphate incorporation); type: biochemical
Description: as §1, with “The compounds from the examples above were investigated for their ability to inhibit the enzymatic activity of various protein kinases using the method as disclosed in Wang, S. et al. J Med Chem 2004, 47, 1662.” left out

[1] = 72-h MTT cytotoxicity assay; type: cell-based; conditions: human, MRC5 cells
Description: (§2) MTT cytotoxicity assay. […] Human tumour cell lines were obtained from ECACC (European Collection of Cell Cultures). Standard 72-h MTT (thiazolyl blue; 3-[4,5-dimethylthiazol-2-yl]-2,5-diphenyltetrazolium bromide, 2 mg/ml in phosphate buffered saline) assays were performed. In short: cells were seeded into 96-well plates according to doubling time and incubated overnight at 37° C. Test compounds were made up in DMSO and a ⅓ dilution series prepared in 100 μL cell media, added to cells (in triplicates) and incubated for 72 hr at 37° C. MTT was made up as a stock of 5 mg/mL in cell media and filter-sterilised. Media was removed from cells followed by a wash with 200 μL PBS. MTT solution was then added at 20 μL per well and incubated in the dark at 37° C. for 4 h. MTT solution was removed and cells again washed with 200 μL PBS. MTT dye was solubilised with 200 μL per well of DMSO with agitation. Absorbance was read at 550 nm on an Anthos Labtec Systems plate reader.

HCT-116 = test: 72-h MTT cytotoxicity assay; type: cell-based, human; conditions: for GI50: Homo sapiens, HCT-116, HCT116 cells, 72-h MTT
Description: as §2

MCF-7 = test: 72-h MTT cytotoxicity assay; type: cell-based, human; conditions: for GI50: Homo sapiens, MCF7 cells, 72-h MTT
Description: as §2

MDA-MB-231 = test: 72-h MTT cytotoxicity assay; type: cell-based; conditions: read-out: 72-h MTT IC50 (μM), human cell line, breast
Description: (§3) MTT cytotoxicity assay. The compounds from the examples above were subjected to a standard cellular proliferation assay using the method described previously (Haselsberger, K. et al. Anti Cancer Drugs 1996, 7, (3), 331-8. Loveland, B. E. et al. Biochemistry International 1992, 27, (3), 501-10). Human tumour cell lines were obtained from ECACC (European Collection of Cell Cultures). Standard 72-h MTT (thiazolyl blue; 3-[4,5-dimethylthiazol-2-yl]-2,5-diphenyltetrazolium bromide, 2 mg/ml in phosphate buffered saline) assays were performed. In short: cells were seeded into 96-well plates according to doubling time and incubated overnight at 37° C. Test compounds were made up in DMSO and a ⅓ dilution series prepared in 100 μL cell media, added to cells (in triplicates) and incubated for 72 hr at 37° C. MTT was made up as a stock of 5 mg/mL in cell media and filter-sterilised. Media was removed from cells followed by a wash with 200 μL PBS. MTT solution was then added at 20 μL per well and incubated in the dark at 37° C. for 4 h. MTT solution was removed and cells again washed with 200 μL PBS. MTT dye was solubilised with 200 μL per well of DMSO with agitation. Absorbance was read at 550 nm on an Anthos Labtec Systems plate reader.

NCI-H460 = test: 72-h MTT cytotoxicity assay; type: cell-based; conditions: read-out: 72-h MTT IC50 (μM), human cell line, lung
Description: as §3

A2780 = test: 72-h MTT cytotoxicity assay; type: cell-based; conditions: read-out: 72-h MTT IC50 (μM), human cell line, ovarian carcinoma
Description: as §3

A549 = test: 72-h MTT cytotoxicity assay; type: cell-based; conditions: read-out: 72-h MTT IC50 (μM), human cell line, lung
Description: as §3

Mia-Paca-2 = test: 72-h MTT cytotoxicity assay; type: cell-based; conditions: read-out: 72-h MTT IC50 (μM), human cell line, pancreatic carcinoma
Description: as §3

PANC W1 = test: 72-h MTT cytotoxicity assay; type: cell-based; conditions: read-out: 72-h MTT IC50 (μM), human cell line, pancreatic carcinoma
Description: as §3

HeLa = test: 72-h MTT cytotoxicity assay; type: cell-based; conditions: read-out: 72-h MTT IC50 (μM), human cell line, cervix
Description: as §3

Human tumour cell lines = test: 72-h MTT cytotoxicity assay, human tumour cell lines (panel / mean); type: cell-based; conditions: read-out: 72-h MTT IC50 (μM), mean over the nine human cell lines of Table A2
Description: as §3

[2] = CDK9-cyclinT1, read-out: Kinase inhibition IC50 CDK9-cyclinT1

Sequence of CDK9 (P50750 whole entry, species assumed): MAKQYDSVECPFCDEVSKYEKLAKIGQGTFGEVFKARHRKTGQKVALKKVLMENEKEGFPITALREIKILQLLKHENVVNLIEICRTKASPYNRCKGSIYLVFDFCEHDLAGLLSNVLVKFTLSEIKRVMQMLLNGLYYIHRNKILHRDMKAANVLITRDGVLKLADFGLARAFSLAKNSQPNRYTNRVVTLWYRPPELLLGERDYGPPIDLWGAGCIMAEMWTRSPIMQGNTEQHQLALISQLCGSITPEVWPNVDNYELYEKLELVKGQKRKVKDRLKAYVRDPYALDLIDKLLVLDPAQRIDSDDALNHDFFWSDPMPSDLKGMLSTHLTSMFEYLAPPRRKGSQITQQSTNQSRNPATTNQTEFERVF
Sequence of CDK9 (O60563 whole entry partner, species assumed): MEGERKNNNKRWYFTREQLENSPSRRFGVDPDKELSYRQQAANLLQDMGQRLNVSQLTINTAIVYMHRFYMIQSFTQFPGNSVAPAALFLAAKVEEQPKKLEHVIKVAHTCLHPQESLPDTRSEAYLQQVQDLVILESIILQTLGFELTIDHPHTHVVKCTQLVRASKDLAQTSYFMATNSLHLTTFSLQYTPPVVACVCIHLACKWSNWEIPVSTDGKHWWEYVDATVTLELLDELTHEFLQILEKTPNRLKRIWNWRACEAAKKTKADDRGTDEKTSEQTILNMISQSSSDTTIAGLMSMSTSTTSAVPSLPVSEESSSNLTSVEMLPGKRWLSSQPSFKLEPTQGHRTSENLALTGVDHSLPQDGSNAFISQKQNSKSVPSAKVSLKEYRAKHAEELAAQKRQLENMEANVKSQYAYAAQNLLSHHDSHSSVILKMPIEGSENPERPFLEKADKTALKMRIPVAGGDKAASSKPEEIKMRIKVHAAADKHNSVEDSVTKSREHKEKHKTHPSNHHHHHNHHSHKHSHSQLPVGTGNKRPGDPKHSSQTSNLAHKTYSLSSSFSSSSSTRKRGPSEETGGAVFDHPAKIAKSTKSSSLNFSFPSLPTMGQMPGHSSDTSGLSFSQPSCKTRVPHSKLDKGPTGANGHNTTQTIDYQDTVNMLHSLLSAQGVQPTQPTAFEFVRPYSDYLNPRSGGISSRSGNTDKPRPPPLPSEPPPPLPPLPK
Sequence of CDK7 (P50613 whole entry, species assumed): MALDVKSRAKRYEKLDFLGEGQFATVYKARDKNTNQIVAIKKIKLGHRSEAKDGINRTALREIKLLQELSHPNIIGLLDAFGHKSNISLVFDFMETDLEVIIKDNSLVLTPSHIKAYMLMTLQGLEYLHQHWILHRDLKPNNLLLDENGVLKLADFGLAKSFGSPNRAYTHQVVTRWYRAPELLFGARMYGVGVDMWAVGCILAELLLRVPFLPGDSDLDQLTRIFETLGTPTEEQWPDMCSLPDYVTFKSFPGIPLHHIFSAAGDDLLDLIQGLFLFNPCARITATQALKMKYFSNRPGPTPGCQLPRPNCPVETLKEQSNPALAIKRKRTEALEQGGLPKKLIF
Sequence of CDK7 (P51946 whole entry partner, species assumed): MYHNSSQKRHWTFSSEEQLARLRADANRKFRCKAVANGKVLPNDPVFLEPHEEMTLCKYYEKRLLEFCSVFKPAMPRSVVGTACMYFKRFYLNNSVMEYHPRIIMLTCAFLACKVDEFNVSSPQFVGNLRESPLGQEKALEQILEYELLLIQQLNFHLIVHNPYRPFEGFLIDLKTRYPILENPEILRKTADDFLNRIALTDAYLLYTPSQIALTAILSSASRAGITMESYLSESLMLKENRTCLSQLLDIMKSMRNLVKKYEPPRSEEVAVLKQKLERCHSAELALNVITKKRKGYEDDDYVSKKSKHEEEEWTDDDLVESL

SMILES	GI50 at 72 h [1]	GI50 (HCT-116)	GI50 (MCF-7)	further results
CNc1nc(C)c(-c2nc(Nc3ccc(C)c(S(=O)(=O)N4CCOCC4)c3)ncc2C#N)s1 [Example 1.1, 4-(4-Methyl-2-methylamino-thiazol-5-yl)-2-[4-methyl-3-(morpholine-4-sulfonyl)-phenylamino]-pyrimidine-5-carbonitrile]	3.14 µM	60 nM	60 nM	IC50 (CDK7): > 1 µM; IC50 (CDK2): 232 nM; IC50 (CDK9; [2]): 41 nM; IC50 (HCT-116; read-out: 72-h MTT IC50 (μM), human cell line HCT-116 (origin not given, stands under cervix), 72 h): 0.06 µM; IC50 (MCF-7; MCF7, read-out: 72-h MTT IC50 (μM), human cell line, breast, MCF-7, 72 h): 0.06 µM; IC50 (MDA-MB-231): 0.923 µM; IC50 (NCI-H460): 0.681 µM; IC50 (A2780): 0.147 µM; IC50 (A549): 0.534 µM; IC50 (Mia-Paca-2): 0.468 µM; IC50 (PANC W1): 0.366 µM; IC50 (HeLa): 0.661 µM; IC50 (Human tumour cell lines): 0.433 µM
CNc1nc(C)c(-c2nc(Nc3ccc(O)cc3)ncc2C#N)s1 [Example 1.2, 2-(4-Hydroxy-phenylamino)-4-(4-methyl-2-methylamino-thiazol-5-yl)-pyrimidine-5-carbonitrile]	1.05 µM	400 nM	230 nM	
CNc1nc(C)c(-c2nc(Nc3cccc(O)c3)ncc2C#N)s1 [Example 1.3, 2-(3-Hydroxy-phenylamino)-4-(4-methyl-2-methylamino-thiazol-5-yl)-pyrimidine-5-carbonitrile]				IC50 (CDK9): 19 nM
CNc1nc(C)c(-c2nc(Nc3cccc(C(=O)N4CCOCC4)c3)ncc2C#N)s1 [Example 1.4]	4.43 µM	590 nM	820 nM	IC50 (CDK7): 3.74 µM; IC50 (CDK2): 147 nM; IC50 (CDK9; [2]): 85 nM
CNc1nc(C)c(-c2nc(Nc3cccc(C(=O)N4CCN(C(C)=O)CC4)c3)ncc2C#N)s1 [Example 1.5, 2-(3-(4-Acetylpiperazine-1-carbonyl)phenylamino)-4-(4-methyl-2-(methylamino)-thiazol-5-yl)pyrimidine-5-carbonitrile]				IC50 (CDK2): 52 nM; IC50 (CDK9; [2]): 33 nM
CNc1nc(C)c(-c2nc(Nc3cccc(C(=O)O)c3)ncc2C#N)s1 [Example 1.6, 3-(5-cyano-4-(4-methyl-2-(methylamino)thiazol-5-yl)pyrimidin-2-ylamino)benzoic acid]	> 100 µM	550 nM	1870 nM	
CNc1nc(C)c(-c2nc(Nc3ccc(S(N)(=O)=O)cc3)ncc2C#N)s1 [Example 1.8, 4-(5-cyano-4-(4-methyl-2-(methylamino)thiazol-5-yl)pyrimidin-2-ylamino)benzenesulfonamide]	26 µM	340 nM	1640 nM	
COc1cccc(-c2nc(Cl)nc(Nc3ccc(O)cc3)n2)c1 [Example 2.1, 4-(4-chloro-6-(3-methoxyphenyl)-1,3,5-triazin-2-ylamino)phenol]				melting point: 93.5 to 94 °C
COc1cccc(-c2nc(Cl)nc(Nc3cccc([N+](=O)[O-])c3)n2)c1 [Example 2.2, 4-chloro-6-(3-methoxyphenyl)-N-(3-nitrophenyl)-1,3,5-triazin-2-amine]				melting point: 196.9 to 197.2 °C
COc1cccc(-c2nc(Cl)nc(Nc3cccc(Br)c3)n2)c1 [Example 2.3, N-(3-bromophenyl)-4-chloro-6-(3-methoxyphenyl)-1,3,5-triazin-2-amine]				melting point: 141.9 to 142.1 °C
COc1cccc(-c2nc(Cl)nc(Nc3ccc(C)c(S(=O)(=O)N4CCOCC4)c3)n2)c1 [Example 2.4, 4-chloro-6-(3-methoxyphenyl)-N-(4-methyl-3-(morpholinosulfonyl)phenyl)-1,3,5-triazin-2-amine]	0.58 µM	530 nM	1580 nM	
COc1cccc(-c2nc(N)nc(Nc3cccc([N+](=O)[O-])c3)n2)c1 [Example 2.6, 6-(3-methoxyphenyl)-N2-(3-nitrophenyl)-1,3,5-triazine-2,4-diamine]	37.6 µM	7090 nM	7070 nM	
COc1cccc(-c2nc(NO)nc(Nc3cccc([N+](=O)[O-])c3)n2)c1 [Example 2.8, 4-(hydroxyamino)-6-(3-methoxyphenyl)-N-(3-nitrophenyl)-1,3,5-triazin-2-amine]	4.24 µM	3480 nM	6420 nM	
